Measurements from ChEMBL document CHEMBL1201862, “PubChem BioAssay data set” (2004).
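Test compounds were applied to cells in 96-well plates for 48 hours at 5 doses. GI50 = concentration required for 50% inhibition of growth.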 Calls of active or inactive are those of the source. No stated cut-off is given here; in the data, active = GI50 up to about 1.1 µM and inactive = higher.

Assays:
Assay in all cases: NCI anticancer screen, dose series, 48 h
SR = system: SR
NCI-H522 = system: NCI-H522
U-251 = system: U-251
HL-60 = system: HL-60
IGROV-1 = system: IGROV-1
K562 = system: K562
HCT-116 = system: HCT-116
HOP-92 = system: HOP-92
OVCAR-5 = system: OVCAR-5
HOP-62 = system: HOP-62
HT-29 = system: HT-29
SK-OV-3 = system: SK-OV-3
EKVX = system: EKVX
NCI-H460 = system: NCI-H460
OVCAR-3 = system: OVCAR-3
A549 = system: A549
SF-539 = system: SF-539
Hs-578T = system: Hs-578T
DU-145 = system: DU-145
MDA-MB-435 = system: MDA-MB-435

Measured: GI50

NC(=O)OCC(COc1ccc(Cl)cc1)OC(=O)c1ccccc1Cl (stereo not given)
inactive: SR 25.6 µM | NCI-H522 16.9 µM | U-251 14.1 µM | HL-60 21.9 µM | IGROV-1 25.5 µM | K562 20.7 µM | HCT-116 17 µM | HOP-92 17.1 µM | OVCAR-5 20.6 µM | HOP-62 20.9 µM | HT-29 17.6 µM | SK-OV-3 > 100 µM | EKVX 25.4 µM | NCI-H460 16.8 µM | OVCAR-3 20.3 µM | A549 27.8 µM | SF-539 19.1 µM

OCCOCCN1CCN(CCCN2c3ccccc3Sc3ccc(C(F)(F)F)cc32)CC1
inactive: NCI-H522 14.7 µM | U-251 12.3 µM | Hs-578T 11.9 µM | IGROV-1 9.84 µM | K562 2.79 µM | HCT-116 7.91 µM | HOP-92 14.1 µM | DU-145 14.2 µM | OVCAR-5 14.3 µM | MDA-MB-435 11.1 µM | HOP-62 17.6 µM | HT-29 2.33 µM | SK-OV-3 19.5 µM | EKVX 14.8 µM | NCI-H460 9.95 µM | OVCAR-3 17.7 µM | A549 13.1 µM | SF-539 12.4 µM

CC1=C(C(=O)NNC(=O)CC#N)CC(C(=O)NNC(=O)CC#N)=C(C)N1
inactive: U-251 > 100 µM | HL-60 82.6 µM | IGROV-1 > 100 µM | HCT-116 > 100 µM | HOP-92 > 100 µM | DU-145 > 100 µM | OVCAR-5 > 100 µM | MDA-MB-435 > 100 µM | HOP-62 > 100 µM | HT-29 > 100 µM | SK-OV-3 > 100 µM | EKVX > 100 µM | NCI-H460 > 100 µM | OVCAR-3 > 100 µM | A549 > 100 µM | SF-539 > 100 µM

C/C(=N\NS(=O)(=O)c1c(C)cc(C)cc1C)c1ccc[n+]([O-])n1
inactive: SR 22.3 µM | NCI-H522 6.61 µM | U-251 41.7 µM | HL-60 6.12 µM | IGROV-1 31.6 µM | K562 4.44 µM | HCT-116 13.1 µM | HOP-92 9.95 µM | OVCAR-5 26.8 µM | HOP-62 > 100 µM | HT-29 18.3 µM | SK-OV-3 > 100 µM | EKVX 12.4 µM | NCI-H460 30.7 µM | OVCAR-3 12.6 µM | A549 65.2 µM | SF-539 13.6 µM

O=C(O)c1c[nH]c2c(Sc3ccccc3)nccc2c1=O
inactive: NCI-H522 76.7 µM | U-251 > 100 µM | Hs-578T > 100 µM | HL-60 78.7 µM | IGROV-1 > 100 µM | HCT-116 > 100 µM | HOP-92 > 100 µM | DU-145 > 100 µM | OVCAR-5 > 100 µM | MDA-MB-435 > 100 µM | HOP-62 > 100 µM | HT-29 > 100 µM | SK-OV-3 > 100 µM | EKVX 70.3 µM | NCI-H460 > 100 µM | OVCAR-3 > 100 µM | A549 > 100 µM | SF-539 > 100 µM

CC12CC3CC/C(=N\O)C(C1)C3(N1CCOCC1)C/C2=N/O (stereo not given)
inactive: SR > 100 µM | NCI-H522 > 100 µM | U-251 > 100 µM | HL-60 49.8 µM | IGROV-1 > 100 µM | K562 > 100 µM | HCT-116 > 100 µM | HOP-92 > 100 µM | DU-145 > 100 µM | OVCAR-5 > 100 µM | MDA-MB-435 > 100 µM | HOP-62 > 100 µM | HT-29 > 100 µM | SK-OV-3 > 100 µM | EKVX > 100 µM | NCI-H460 > 100 µM | OVCAR-3 > 100 µM | A549 > 100 µM | SF-539 > 100 µM

O=C(CCCN1CCC2(CC1)CC(=O)N(N1CCOCC1)C2=O)c1ccc(F)cc1
inactive: NCI-H522 > 100 µM | U-251 > 100 µM | Hs-578T > 100 µM | HL-60 > 100 µM | IGROV-1 > 100 µM | K562 > 100 µM | HCT-116 > 100 µM | DU-145 > 100 µM | OVCAR-5 > 100 µM | MDA-MB-435 > 100 µM | HOP-62 > 100 µM | HT-29 > 100 µM | SK-OV-3 > 100 µM | NCI-H460 > 100 µM | OVCAR-3 > 100 µM | A549 > 100 µM | SF-539 > 100 µM

SC1=NC2=C(CSC/C2=C\c2ccc(Cl)cc2)C(c2ccc(Cl)cc2)N1 (stereo not given)
inactive: SR 32.2 µM | NCI-H522 42.8 µM | U-251 36.8 µM | Hs-578T 45.3 µM | HL-60 24.7 µM | IGROV-1 51.8 µM | K562 28.6 µM | HCT-116 27.5 µM | HOP-92 29.5 µM | DU-145 39.4 µM | OVCAR-5 72.4 µM | HOP-62 36 µM | HT-29 29.6 µM | SK-OV-3 55.8 µM | EKVX 38 µM | NCI-H460 31.4 µM | OVCAR-3 41.2 µM | A549 34.4 µM

CC(C)CCCC(C)[C@H]1CC[C@H]2[C@@H]3CC[C@H]4C[C@@H](CCC=C(c5cc(Cl)c(O)c(C(=O)OC(C)C)c5)c5cc(Cl)c(O)c(C(=O)OC(C)C)c5)CC[C@]4(C)[C@H]3CC[C@]12C (stereo not given in full)
inactive: U-251 > 50 µM | Hs-578T > 50 µM | HL-60 > 50 µM | IGROV-1 > 50 µM | K562 > 50 µM | HCT-116 > 50 µM | HOP-92 > 50 µM | DU-145 > 50 µM | OVCAR-5 > 50 µM | MDA-MB-435 > 50 µM | HOP-62 > 50 µM | HT-29 > 50 µM | SK-OV-3 > 50 µM | EKVX > 50 µM | OVCAR-3 > 50 µM | A549 > 50 µM | SF-539 > 50 µM

Cc1ccc(C2CC(=O)CC(c3ccc(C)cc3)C23C(=O)NC(=O)NC3=O)cc1 (stereo not given)
inactive: SR 60.1 µM | NCI-H522 > 100 µM | U-251 > 100 µM | HL-60 > 10 µM | IGROV-1 > 100 µM | K562 40.4 µM | HCT-116 > 100 µM | HOP-92 > 100 µM | DU-145 > 100 µM | OVCAR-5 > 100 µM | MDA-MB-435 > 100 µM | HOP-62 28.9 µM | HT-29 > 100 µM | EKVX > 100 µM | NCI-H460 > 100 µM | OVCAR-3 > 100 µM | SF-539 > 100 µM

CCC(CC)n1cc(C(=O)NC(=O)NCCCCCOC(=O)CCCCCCCCCCC(=O)OCCCCCNC(=O)NC(=O)c2cn(C(CC)CC)c(=O)[nH]c2=O)c(=O)[nH]c1=O
inactive: SR > 100 µM | NCI-H522 > 100 µM | U-251 88.3 µM | HL-60 > 100 µM | IGROV-1 > 100 µM | K562 > 100 µM | HCT-116 > 100 µM | HOP-92 > 100 µM | OVCAR-5 > 100 µM | HOP-62 > 100 µM | HT-29 > 100 µM | SK-OV-3 > 100 µM | EKVX > 100 µM | NCI-H460 > 100 µM | OVCAR-3 > 100 µM | A549 > 100 µM | SF-539 47.2 µM

[O-][S+]1Nc2c(Cl)cc(Cl)c(Cl)c2S1 (stereo not given)
inactive: SR 43.1 µM | NCI-H522 78.9 µM | U-251 38.6 µM | HL-60 32.7 µM | IGROV-1 > 100 µM | K562 74.3 µM | HCT-116 > 100 µM | HOP-92 35.2 µM | OVCAR-5 > 100 µM | HOP-62 > 100 µM | HT-29 > 100 µM | SK-OV-3 > 100 µM | EKVX > 100 µM | NCI-H460 > 100 µM | OVCAR-3 78.2 µM | A549 > 100 µM | SF-539 > 100 µM

CCn1nc(C)c2c1C(=O)NC(C)C(=O)N2 (stereo not given)
inactive: NCI-H522 > 100 µM | U-251 > 100 µM | Hs-578T > 100 µM | IGROV-1 > 100 µM | HCT-116 > 100 µM | HOP-92 > 100 µM | DU-145 > 100 µM | OVCAR-5 > 100 µM | MDA-MB-435 > 100 µM | HT-29 > 100 µM | SK-OV-3 > 100 µM | EKVX > 100 µM | NCI-H460 > 100 µM | OVCAR-3 > 100 µM | A549 > 100 µM | SF-539 > 100 µM

CC(Nc1cc(Cl)cc(Cl)c1)c1ccncc1 (stereo not given)
inactive: NCI-H522 15.3 µM | U-251 17.9 µM | Hs-578T 35.2 µM | IGROV-1 15.4 µM | K562 13.6 µM | HCT-116 14.8 µM | DU-145 > 10 µM | OVCAR-5 16.2 µM | MDA-MB-435 22.2 µM | HOP-62 15.8 µM | HT-29 27.7 µM | EKVX 22.4 µM | NCI-H460 16.9 µM | OVCAR-3 16.6 µM | A549 27.8 µM | SF-539 21.8 µM

CC(Nc1ccc(S(=O)(=O)NC(=N)N)cc1)c1c2ccccc2nc2ccccc12 (stereo not given)
inactive: SR 14.2 µM | NCI-H522 15.1 µM | U-251 31.6 µM | HL-60 14.5 µM | IGROV-1 46.5 µM | K562 27.6 µM | HCT-116 > 10 µM | HOP-92 18.5 µM | OVCAR-5 20.2 µM | HT-29 35.4 µM | SK-OV-3 26.4 µM | EKVX 25.5 µM | NCI-H460 25.4 µM | OVCAR-3 > 10 µM | A549 31.4 µM | SF-539 22.9 µM

O=C1OC[C@@H]2Cc3cc4c(cc3[C@H](c3ccc5c(c3)OCO5)[C@@H]12)OCO4
inactive: SR 24 µM | U-251 > 25 µM | HL-60 10.6 µM | K562 12 µM | HCT-116 18.2 µM | DU-145 > 25 µM | OVCAR-5 > 25 µM | MDA-MB-435 13.3 µM | HOP-62 24.7 µM | HT-29 24.1 µM | EKVX > 25 µM | NCI-H460 > 25 µM | OVCAR-3 > 25 µM | A549 > 25 µM
